Experiment: gradient 5% acetonitrile 3 min, to 50% in 2 min, to 85% in 15 min, held 3 min, 100 µL/min
Conditions: column: Zorbax Extend-C18 2.1 x 50 mm; eluents: water / acetonitrile, 0.1% formic acid
Method in brief: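 Retention times of pure standards were taken from adduct peaks that were selected by computer and manually inspected. Over 3 months, mixtures of ~100 molecules were run by HPLC–quadrupole time-of-flight mass spectrometry in positive and negative ionization mode. The Zorbax Extend-C18 column (2.1 × 50 mm, 1.8 μm) ran at 100 μL/min in water and acetonitrile, each containing 0.1% formic acid, with 40 μL dead volume and 900 μL dwell volume.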

Compound | RP-LC retention time
CCCC(=O)N1CCc2c([nH]c3ccccc23)C1c1ccc(SC)cc1 (stereo unspecified) | 1170 s
Cc1ccc(C(CC(=O)N2CCN(c3ccccn3)CC2)n2cccc2)cc1 (stereo unspecified) | 995 s
O=C(c1cc2c(=O)n(Cc3ccccc3)ccc2s1)N1CCOCC1 | 716 s
Cc1nc(CCNC(=O)[C@H]2CCCN2C(=O)c2ccc(F)cc2)cs1 | 627 s
COc1ccc(-c2nnc3n2CCN(Cc2ccccc2C#N)C3)cc1 | 668 s
Cc1cc(C)cc(NC(=O)CSc2ccc(N3CCCC(C(=O)NC4CC4)C3)nn2)c1 (stereo unspecified) | 690 s
Cc1cc(=O)n(CC(=O)Nc2ccc(Cl)cc2)c(N2CCC(C)CC2)n1 | 758 s
O=C(CSc1ccc(-c2ccco2)nn1)Nc1ccc(F)cc1F | 788 s
COc1ccc(-c2nc3cnccn3c2Nc2ccc(C(=O)NCc3ccco3)cc2)cc1 | 710 s
Cc1sc(NC(=O)c2cccc(F)c2)nc1-c1ccccc1 | 1150 s
CCOc1cccc(-c2noc(Cn3ccn(-c4ccccc4OC)c(=O)c3=O)n2)c1 | 863 s
Cc1ccc(NC(=O)Cn2nc(-n3cccc3)c3c(C)cc(C)nc32)c(C)c1 | 1080 s
Cn1c(C2CCN(C(=O)Nc3cc(F)cc(F)c3)CC2)cc(=O)n2nccc12 | 695 s
CC1CCC2(CC1)NC(=O)N(CC(=O)Nc1cccc(F)c1)C2=O (stereo unspecified) | 816 s
O=C(Cn1nc2c3ccc(F)cc3ncn2c1=O)Nc1ccc(Cl)cc1 | 760 s
Brc1ccccc1Cc1nc(-c2ccc3nncn3c2)no1 | 724 s
CCN(C(=O)C1CCCN1S(=O)(=O)c1cc2c(cc1C)NC(=O)C(C)O2)c1cccc(C)c1 (stereo unspecified) | 868 s
CCc1cc2c(N3CCCC(C(=O)NCCCN4CCN(CC)CC4)C3)ncnc2s1 (stereo unspecified) | 579 s
Nc1nnc(-c2ccc(Br)s2)o1 | 628 s
O=C(Cn1c(=O)cc(-c2nc(C3CC3)no2)c2ccccc21)Nc1ccc2c(c1)OCO2 | 908 s
O=C(NCCCN1CCCC1=O)c1ccc2nc(CCc3ccccc3)oc2c1 | 754 s
CCN(CC)C(=O)c1cc2c(s1)CCC(C(=O)NCc1ccncc1)C2 (stereo unspecified) | 557 s
O=C1NCCCn2cc(S(=O)(=O)Nc3ccc(F)cc3)cc21 | 639 s

Compound | RP-LC retention time
CCc1ccccc1NC(=O)N1CC=C(c2cn(C(C)C)c3ncccc23)CC1 | 958 s
O=C(NCc1ccc(F)cc1)N1CC(n2ccnc2)C1 | 577 s
CCN1C(=O)c2cc(C(=O)Nc3ccc(C)cc3C)nn2CC1(C)C(=O)NC1CCCC1 (stereo unspecified) | 800 s
Cc1cc(C)cc(C(=O)N2CCC(n3c(-c4ccoc4)nc4cccnc43)C2)c1 (stereo unspecified) | 804 s
CCCN(C(=O)Nc1ccccc1C(=O)OCC)c1nc(-c2ccc(C3CCCCC3)cc2)cs1 | 630 s
COc1ccc(CNC(=O)C2(C)CCN(C(=O)NCc3ccco3)CC2)cc1 | 700 s
CCC(C)N(CC(=O)N1CCc2sccc2C1COc1ccccc1OC)C(=O)COC (stereo unspecified) | 845 s
CCC(=O)N1CCc2cc(N3CC(C(=O)Nc4cc(C)ccc4F)CC3=O)ccc21 (stereo unspecified) | 768 s
CCCC(NC(=O)c1cccc(OC)c1)C(=O)Nc1nc2ccccc2[nH]1 (stereo unspecified) | 696 s
CCCc1noc(-c2ccnc(-n3ncc(C(=O)NC4CCCC4)c3C)c2)n1 | 640 s
CCCn1cc(C(=O)NCC2CCCO2)c2cccnc21 (stereo unspecified) | 669 s
Cc1ccc(NC(=O)N2CCC3(CC2)NC(=O)c2ccccc2O3)cc1C | 812 s
COCc1c(C(=O)O)nnn1-c1ccc(F)c(F)c1 | 723 s
COc1ccccc1C(=O)Nc1c2c(nn1C(C)(C)C)CS(=O)(=O)C2 | 740 s
CC(C)c1ccc(-c2noc(N3CCC(C(=O)NC4CCCCC4)CC3)n2)cc1 | 1180 s
Cc1cc(NC(=O)COc2coc(CN3CCN(C(=O)c4ccco4)CC3)cc2=O)no1 | 549 s
CCCN1CCN(C(=O)C2=Cc3cc(-c4ccccc4)ccc3OC2)CC1 | 714 s
Cc1ccc(C)c(NC(=O)Nc2cccc(-c3cn4cccnc4n3)c2)c1 | 696 s
CCOC(=O)CNc1ncnc2nc[nH]c12 | 513 s
CC(=O)Nc1cc2c(cc1SC(C)C)n(C)c(=O)n2C | 705 s
COC(=O)c1ccccc1NC(=O)Cn1c(N2CCCC2)nc(C)cc1=O | 612 s
Cc1ccnc(C(=O)Nc2cccc(Cl)c2Cl)n1 | 866 s
Cc1ccc(NC(=O)N2CCCC2c2nncn2C2CCCC2)cc1F (stereo unspecified) | 728 s

Compound | RP-LC retention time
CCCS(=O)(=O)N1CCC(N2C[C@H](OC)[C@@H]2c2cccnc2)CC1 | 561 s
Cc1ccc(Nc2c(-c3ccc(N(C)C)cc3)nc3ccccn23)cc1 | 743 s
Cc1ccc(C)c(NC(=O)C2CCN(S(=O)(=O)c3cc(-c4noc(C5CC5)n4)cs3)CC2)c1 | 1020 s
Cc1cccc(NC(=O)C2CCN(S(=O)(=O)c3cc(C(=O)N4CCCC4)n(C)c3)CC2)c1C | 843 s
Cc1cc(NC(=O)N2CCC(c3cc(N)on3)CC2)ccc1Br | 790 s
CCc1cc(=O)n(CC(=O)Nc2ccccc2)c(-c2ccccc2)n1 | 1090 s
CC(C)OCCCNCc1ccc2c(c1)n(C)c(=O)n2C | 592 s
Cc1cccc(-c2noc(C3CCCN3S(=O)(=O)c3ccc(C(C)C)cc3)n2)c1 (stereo unspecified) | 1330 s
COCC1(O)CCOC2(CCN(Cc3ccc(C#N)cc3)CC2)C1 (stereo unspecified) | 578 s
CC(=O)Nc1ncncc1N1CCC(C(=O)NCc2cccc(C(F)(F)F)c2)CC1 | 698 s
CCc1nc(-c2csc(S(=O)(=O)N3CCCC(C(=O)NC4CCC(C)CC4)C3)c2)no1 (stereo unspecified) | 1100 s
O=C(c1ccc(C(F)(F)F)s1)N1CCN(c2nnc3ccccn23)CC1 | 711 s
O=C(NCc1cc(F)ccc1F)C1CCc2nc(N3CCCC3)ncc2C1 (stereo unspecified) | 646 s
CCn1ccc2c(cc(C(=O)Nc3ccc(C)c(C)c3)n2C)c1=O | 824 s
CCN(CC)C(=O)c1ccc(O)c(OC)c1 | 718 s
O=C(Cn1cccc1-c1nnc(C2CCC2)o1)NCc1cccc(Br)c1 | 937 s
Cc1ccc(C)c(C(=O)N2CCN(c3cc(-c4cccs4)[nH]n3)CC2)c1 | 847 s
O=C(Nc1ccc(Br)cc1F)C1CCCN(S(=O)(=O)Cc2ccc(F)cc2)C1 (stereo unspecified) | 1040 s
O=C(Nc1ccccc1)c1nnc(CSCC(=O)N2CCN(c3ccccn3)CC2)s1 | 631 s
CC(C)(C)c1csc(-c2csc(S(=O)(=O)Nc3ccccc3F)c2)n1 | 1120 s
CCOc1cc(CNC(=O)c2nc(N3CCOCC3)c3ccccc3n2)ccc1OC | 660 s
COCc1noc([C@@H]2CN(C(=O)C3CC=CCC3)C[C@H]2C(N)=O)n1 (stereo partly specified) | 610 s
Cc1ccccc1Nc1c(-c2cccc(O)c2)nc2cccc(C)n12 | 678 s

Compound | RP-LC retention time
Cc1cc(=O)n(CC(=O)NCc2ccccc2Br)c(N2CCc3ccccc3C2)n1 | 818 s
Cc1cc(Cl)ccc1NS(=O)(=O)c1cc(-c2nc(C(C)(C)C)cs2)cs1 | 1360 s
CCOc1ccc(S(=O)(=O)N2CCCC(C(=O)NCCCOC)C2)cc1C (stereo unspecified) | 847 s
COc1ccc(-c2c(C)noc2NC(C)=O)cc1S(=O)(=O)N1CCc2ccccc2C1 | 807 s
c1ccc(OCc2nc(-c3cccc(-c4ccn[nH]4)c3)no2)cc1 | 906 s
Clc1ccc(-c2nc(NC3CCCC3)c3ccccc3n2)cc1 | 887 s
COc1ccc(NC(=O)Cn2nc3nc(N4CCCC4)ccn3c2=O)cc1OC | 617 s
COc1ccccc1N1CCN(Cc2nc3nc(C)cc(N(C)C)n3n2)CC1 | 606 s
CCN1C(=O)c2cccnc2Sc2cc(NC(=O)C3CCCCC3)ccc21 | 877 s
CS(=O)(=O)Nc1ccc(C2(C(=O)NCc3cccc(F)c3)CCCCC2)cc1 | 887 s
O=C(CN1C(=O)CCCc2cc(S(=O)(=O)N3CCCCC3)ccc21)Nc1ccccc1 | 885 s
CCC(C)NC(=O)NCCc1nc2cccnc2n1Cc1ccccc1 (stereo unspecified) | 685 s
C[C@@]1(O)CCN(Cc2cccc(C#N)c2)C[C@H]1N1CCCC1 | 541 s
Cc1ccc(S(=O)(=O)NC(=O)NC2=NC(C)(C)N(c3ccc(Cl)c(Cl)c3)C(N)=N2)cc1 | 733 s
CC(C)(C)NC(=O)c1cc2c(s1)N(CC1CC1)CCCC2 | 1200 s
Nc1nc(-c2ccccc2Cl)nn1C(=O)C1CC1 | 827 s
O=C(NCc1cc(F)ccc1F)C1CCc2nc(N3CCCCC3)ncc2C1 (stereo unspecified) | 743 s
CCC(=O)N1CCc2cc(N3CC(C(=O)NC(C)c4ccccn4)CC3=O)ccc21 (stereo unspecified) | 585 s
CC(NC(=O)c1ccco1)c1nc2ccccc2n1CC(=O)N(C(C)C)C(C)C (stereo unspecified) | 691 s
Cn1cc(CN2CCCC(COc3ccccc3C(=O)NC3CC3)C2)c2ccccc21 (stereo unspecified) | 686 s
CCc1ccc(OCc2nc(C)c(C(=O)Nc3nc(-c4ccc(C)cc4)cs3)s2)cc1 | 1420 s
O=C(CN1CCN(C(=O)Nc2ccc(Cl)cc2)CC1=O)N1CCN(C2CCCCC2)CC1 | 624 s
